Results published in PubChem BioAssay AID248 (DTP/NCI, 2004).
Several values for one entry are separate records, joined by “and”; a condition that tells them apart may be missing. Equal values may be shown once. Inconclusive results and toxic doses are left out. No stated cut-off is given here; in the data, active means T/C of 150% or more; inactive means T/C below 125%.

System: L1210 leukemia ip in BDF1 mice, survival T/C
Experiment: NCI In Vivo Anticancer Drug Screen. Data for tumor model L1210 Leukemia (intraperitoneal) in B6D2F1 (BDF1) mice
Conditions: endpoint: mean survival time, higher = longer survival
How it was run: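 Each compound was tested against a transplantable tumor grown in mice. The endpoint was survival, with treated animals benchmarked against vehicle controls as a simple ratio.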

[1] = dose: 100.0 mg/kg/injection, schedule: Q04DX003 (ip), vehicle: Klucel (hydroxypropylcellulose) (HPC)
[2] = dose: 200.0 mg/kg/injection, schedule: Q04DX003 (ip), vehicle: Klucel (hydroxypropylcellulose) (HPC)
[3] = dose: 100.0 mg/kg/injection, schedule: Q01DX009 (ip), vehicle: Klucel (hydroxypropylcellulose) (HPC)
[4] = dose: 200.0 mg/kg/injection, schedule: Q01DX009 (ip), vehicle: Klucel (hydroxypropylcellulose) (HPC)
[5] = dose: 100.0 mg/kg/injection, schedule: Q04DX003 (ip), vehicle: saline
[6] = dose: 200.0 mg/kg/injection, schedule: Q04DX003 (ip), vehicle: saline
[7] = dose: 400.0 mg/kg/injection, schedule: Q04DX003 (ip), vehicle: saline
[8] = dose: 100.0 mg/kg/injection, schedule: Q01DX001 (ip), vehicle: saline
[9] = dose: 200.0 mg/kg/injection, schedule: Q01DX001 (ip), vehicle: saline
[10] = dose: 100.0 mg/kg/injection, schedule: Q01DX001 (ip), vehicle: saline with Tween-80
[11] = dose: 200.0 mg/kg/injection, schedule: Q01DX001 (ip), vehicle: saline with Tween-80
[12] = dose: 400.0 mg/kg/injection, schedule: Q01DX009 (ip), vehicle: Klucel (hydroxypropylcellulose) (HPC)

Measured: T/C

COC(=O)[c-]1[c-][c-][c-][c-]1.COC(=O)[c-]1[c-][c-][c-][c-]1.[Fe]
inactive: dose: 12.5 mg/kg/injection, schedule: Q04DX003 (ip), vehicle: Klucel (hydroxypropylcellulose) (HPC) 94 % of control | dose: 25.0 mg/kg/injection, schedule: Q04DX003 (ip), vehicle: Klucel (hydroxypropylcellulose) (HPC) 90 % of control | dose: 50.0 mg/kg/injection, schedule: Q04DX003 (ip), vehicle: Klucel (hydroxypropylcellulose) (HPC) 90 % of control | dose: 75.0 mg/kg/injection, schedule: Q01DX009 (ip), vehicle: Klucel (hydroxypropylcellulose) (HPC) 103 % of control | dose: 115.0 mg/kg/injection, schedule: Q01DX009 (ip), vehicle: Klucel (hydroxypropylcellulose) (HPC) 93 % of control

ClN=C(c1ccccc1)c1ccccc1
inactive: dose: 12.0 mg/kg/injection, schedule: Q01DX009 (ip), vehicle: Klucel (hydroxypropylcellulose) (HPC) 110 % of control | dose: 25.0 mg/kg/injection, schedule: Q01DX009 (ip), vehicle: Klucel (hydroxypropylcellulose) (HPC) 102 % of control | dose: 50.0 mg/kg/injection, schedule: Q01DX009 (ip), vehicle: Klucel (hydroxypropylcellulose) (HPC) 107 % of control | [1] 100 % of control | [2] 98 % of control

CCOc1ccc(N2CSC(=S)N(c3ccc(OCC)cc3)C2)cc1
inactive: [3] 96 % of control | [1] 92 % of control | [4] 99 % of control | [2] 92 % of control | dose: 400.0 mg/kg/injection, schedule: Q04DX003 (ip), vehicle: Klucel (hydroxypropylcellulose) (HPC) 92 % of control

O=[N+]([O-])c1cc(Cl)[n+]([O-])c(Cl)c1
inactive: dose: 75.0 mg/kg/injection, schedule: Q01DX001 (ip), vehicle: carboxymethylcellulose (CMC) 101 % of control

C=CCC(CC)(C(=O)O)C(=O)O
inactive: dose: 100.0 mg/kg/injection, schedule: Q01DX009 (ip), vehicle: saline 96 % of control | [5] 102 % of control | dose: 200.0 mg/kg/injection, schedule: Q01DX009 (ip), vehicle: saline 93 % of control | [6] 95 % of control | [7] 86 % of control

CC(=O)CC(=O)Nc1cccc(C)n1
inactive: [8] 100 % of control | dose: 100.0 mg/kg/injection, schedule: Q04DX002 (ip), vehicle: Klucel (hydroxypropylcellulose) (HPC) 94 % of control | [9] 110 % of control | dose: 200.0 mg/kg/injection, schedule: Q04DX002 (ip), vehicle: Klucel (hydroxypropylcellulose) (HPC) 97 % of control

CCC(=O)P(=O)(OC)OC
inactive: [5] 102 % of control | [6] 102 % of control | [7] 95 % of control

CC(=O)OC1CCC2C3CCC4=CC(=O)C(C(O)(C(F)(F)F)C(F)(F)F)CC4(C)C3CCC12C (stereo not given)
inactive: dose: 100.0 mg/kg/injection, schedule: Q01DX001 (sc), vehicle: steriod suspending solution 106 % of control | dose: 200.0 mg/kg/injection, schedule: Q01DX001 (sc), vehicle: steriod suspending solution 101 % of control | dose: 400.0 mg/kg/injection, schedule: Q01DX001 (sc), vehicle: steriod suspending solution 101 % of control

c1ccc(-c2cc(-c3ccccc3)n(-c3ccccc3)c2)cc1
inactive: [10] 87 % of control | [11] 89 % of control

CC(=O)OC1CCCCC1N (stereo not given)
inactive: dose: 100.0 mg/kg/injection, schedule: Q04DX002 (ip), vehicle: saline 100 % of control and 91 % of control | dose: 200.0 mg/kg/injection, schedule: Q04DX002 (ip), vehicle: saline 92 % of control and 103 % of control | dose: 400.0 mg/kg/injection, schedule: Q04DX002 (ip), vehicle: saline 103 % of control and 114 % of control

O=C1CCC(=O)N1C(=O)c1ccccc1
inactive: dose: 100.0 mg/kg/injection, schedule: Q01DX Z (ip), vehicle: methylcellulose (MC) 104 % of control | dose: 150.0 mg/kg/injection, schedule: Q01DX Z (ip), vehicle: methylcellulose (MC) 102 % of control | dose: 225.0 mg/kg/injection, schedule: Q01DX Z (ip), vehicle: methylcellulose (MC) 95 % of control

OCCN1CC2CCCC1O2 (stereo not given)
inactive: dose: 50.0 mg/kg/injection, schedule: Q01DX001 (ip), vehicle: saline 101 % of control | [8] 101 % of control | [9] 103 % of control | dose: 400.0 mg/kg/injection, schedule: Q01DX001 (ip), vehicle: saline 101 % of control

COc1ccc(Cl)cc1NC(=O)Nc1ccc(SC)cc1
inactive: [3] 98 % of control | [4] 94 % of control | [12] 96 % of control

O=C1NC(c2cccs2)N2C(=O)NC(c3cccs3)N12 (stereo not given)
inactive: dose: 100.0 mg/kg/injection, schedule: Q04DX002 (ip), vehicle: gum acacia 105 % of control | dose: 200.0 mg/kg/injection, schedule: Q04DX002 (ip), vehicle: gum acacia 109 % of control | dose: 400.0 mg/kg/injection, schedule: Q04DX002 (ip), vehicle: gum acacia 112 % of control

CC(=O)Nc1ccc(S(=O)(=O)Nc2ccc(F)cc2)cc1
inactive: [3] 96 % of control | [4] 98 % of control | [12] 102 % of control

C/C=C(/Br)C(=O)O
inactive: dose: 12.5 mg/kg/injection, schedule: Q04DX002 (ip), vehicle: saline with Tween-80 113 % of control | dose: 25.0 mg/kg/injection, schedule: Q04DX002 (ip), vehicle: saline with Tween-80 105 % of control | dose: 50.0 mg/kg/injection, schedule: Q04DX002 (ip), vehicle: saline with Tween-80 98 % of control | dose: 100.0 mg/kg/injection, schedule: Q04DX002 (ip), vehicle: saline with Tween-80 105 % of control

O=P(OCc1ccccc1)(N(CCCl)CCCl)N1CCN(Cc2ccccc2)CC1 (stereo not given)
inactive: dose: 10.0 mg/kg/injection, schedule: Q01DX Z (ip), vehicle: saline 93 % of control | dose: 30.0 mg/kg/injection, schedule: Q01DX Z (ip), vehicle: saline 90 % of control | dose: 100.0 mg/kg/injection, schedule: Q01DX Z (ip), vehicle: saline 95 % of control

C/C(=N\NC(N)=O)C(F)(F)F
inactive: dose: 15.0 mg/kg/injection, schedule: Q01DX Z (ip), vehicle: carboxymethylcellulose (CMC) 110 % of control | dose: 30.0 mg/kg/injection, schedule: Q01DX Z (ip), vehicle: carboxymethylcellulose (CMC) 93 % of control | dose: 60.0 mg/kg/injection, schedule: Q01DX Z (ip), vehicle: carboxymethylcellulose (CMC) 100 % of control and 103 % of control | dose: 120.0 mg/kg/injection, schedule: Q01DX Z (ip), vehicle: carboxymethylcellulose (CMC) 103 % of control and 109 % of control | dose: 120.0 mg/kg/injection, schedule: Q01DX Z (oral), vehicle: carboxymethylcellulose (CMC) 109 % of control | dose: 240.0 mg/kg/injection, schedule: Q01DX Z (ip), vehicle: carboxymethylcellulose (CMC) 112 % of control | dose: 240.0 mg/kg/injection, schedule: Q01DX Z (oral), vehicle: carboxymethylcellulose (CMC) 101 % of control | dose: 480.0 mg/kg/injection, schedule: Q01DX Z (oral), vehicle: carboxymethylcellulose (CMC) 90 % of control

CCOC(=O)Nc1ccc2c(c1)/C(=N\NC(N)=S)c1ccccc1-2
inactive: dose: 50.0 mg/kg/injection, schedule: Q01DX001 (ip), vehicle: carboxymethylcellulose (CMC) 94 % of control | dose: 50.0 mg/kg/injection, schedule: Q04DX003 (ip), vehicle: saline 86 % of control | dose: 75.0 mg/kg/injection, schedule: Q01DX009 (ip), vehicle: saline with Tween-80 101 % of control | dose: 100.0 mg/kg/injection, schedule: Q01DX001 (ip), vehicle: carboxymethylcellulose (CMC) 102 % of control | [8] 93 % of control | [5] 92 % of control | dose: 150.0 mg/kg/injection, schedule: Q01DX009 (ip), vehicle: saline with Tween-80 113 % of control | dose: 200.0 mg/kg/injection, schedule: Q01DX001 (ip), vehicle: carboxymethylcellulose (CMC) 105 % of control | [9] 96 % of control | [6] 100 % of control | dose: 400.0 mg/kg/injection, schedule: Q01DX001 (ip), vehicle: carboxymethylcellulose (CMC) 100 % of control

Cn1cc2ccccc2n1
inactive: dose: 50.0 mg/kg/injection, schedule: Q01DX001 (ip), vehicle: saline with Tween-80 102 % of control | [10] 100 % of control | [11] 102 % of control

CCCc1[nH]nc(C(=O)OC)c1N=NN(C)C
inactive: dose: 173.0 mg/kg/injection, schedule: Q01DX001 (ip), vehicle: other 110 % of control | dose: 266.0 mg/kg/injection, schedule: Q01DX001 (ip), vehicle: other 112 % of control | dose: 400.0 mg/kg/injection, schedule: Q01DX001 (ip), vehicle: other 115 % of control | dose: 600.0 mg/kg/injection, schedule: Q01DX001 (ip), vehicle: other 123 % of control
